Test [1] deals with osteoarthritic joint of mice after ACL surgery. Description: Osteoarthritis mouse model (ACL surgery). The format is in vivo. The method, then: A table and schematic of two osteoarthritis mouse model study designs are presented in FIGS. 35 and 36, respectively. The two treatment studies were designed to determine the effect of removing senescent cells in an animal model of osteoarthritis.
Parallel studies were performed. One study investigated the effect of eliminating senescent cells with ganciclovir (GCV) in 3MR mice. Mice underwent surgery to cut the anterior cruciate ligament of one rear limb to induce osteoarthritis in the joint of that limb. During week 2 post-surgery, 3MR mice received 2.5 μg GCV to the operated knee by intra-articular injection, qd for 5 days, with a 2nd treatment (2.5 μg GCV qd for 5 days) during week 4 post-surgery. At the end of 4 weeks post-surgery, operated joints of the mice were monitored for presence of senescent cells, assessed for function, monitored for markers of inflammation, and underwent histological assessment.
In a parallel study, C57BL/6J mice underwent surgery to cut the anterior cruciate ligament of one rear limb to induce osteoarthritis in the joint of that limb. During week 3 and week 4 post-surgery, the mice were treated with 5.8 μg of Nutlin-3A (n=7) per operated knee by intra-articular injection, qod for 2 weeks. At the end of 4 weeks post-surgery, joints of the mice were monitored for presence of senescent cells, assessed for function, monitored for markers of inflammation, and underwent histological assessment.
Two control groups of mice were included in the studies performed: one group comprising C57BL/6J or 3MR mice that had undergone a sham surgery (n=3) (i.e., surgical procedures followed except for cutting the ACL) and intra-articular injections of vehicle parallel to the GCV-treated group; and one group comprising C57BL/6J or 3MR mice that had undergone an ACL surgery and received intra-articular injections of vehicle (n=5) parallel to the GCV-treated group.
RNA from the operated joints of mice from the Nutlin-3A treated mice was analyzed for expression of SASP factors (mmp3, IL-6) and senescence markers (p16). qRT-PCR was performed to detect mRNA levels. […] RNA from the operated joints of mice was also analyzed for expression of type 2 collagen and compared with expression of actin as a control.
Function of the limbs was assessed 4 weeks post-surgery by a weight bearing test to determine which leg the mice favored (FIG. 39). The mice were allowed to acclimate to the chamber on at least 3 occasions prior to taking measurements. Mice were maneuvered inside the chamber to stand with 1 hind paw on each scale. The weight that was placed on each hind limb was measured over a 3-second period. At least 3 separate measurements were made for each animal at each time point. The results were expressed as the percentage of the weight placed on the operated limb versus the contralateral unoperated limb.
The function of the limbs was also assessed at 4 weeks post-surgery by hotplate analysis to show sensitivity and reaction to pain stimulus. In brief, a mouse was placed on a hotplate at 55° C. When placed on the hot surface of the plate, mice will lift their paws and lick them (paw-lick response) due to attainment of pain threshold. The latency period for the hind limb response (paw-lick response) is recorded as response time.
Histopathology of osteoarthritis induced by ACL surgery illustrated that the proteoglycan layer was destroyed. […] Clearing of senescent cells from the 3MR mice treated with GCV, which kills senescent cells, had the same impact on pathophysiology of osteoarthritis as Nutlin-3A.

Test [2] has as its system 3MR or INK-ATTAC mice exposed to cigarette smoke. Description: Chronic cigarette smoke exposure model (COPD). The format is in vivo, mouse. Conditions: after 2 months of cigarette smoke exposure; vs untreated controls. The method, then:
In a second animal model for pulmonary diseases (e.g., COPD), mice were exposed to cigarette smoke. The effect of a senolytic agent on the mice exposed to smoke is assessed by senescent cell clearance, lung function, and histopathology.
Six week-old 3MR (n=35) or INK-ATTAC (n=35) mice were chronically exposed to cigarette smoke generated from a Teague TE-10 system, an automatically-controlled cigarette smoking machine that produces a combination of side-stream and mainstream cigarette smoke in a chamber, which is transported to a collecting and mixing chamber where varying amounts of air is mixed with the smoke mixture. The COPD protocol was adapted from the COPD core facility at Johns Hopkins University (at Internet site web.jhu.edu/Biswal/exposure_core/copd.html#Cigarette_Smoke) (Rangasamy et al., 2004, J. Clin. Invest. 114:1248-1259; Yao et al., 2012, J. Clin. Invest. 122:2032-2045). Mice received a total of 6 hours of cigarette smoke exposure per day, 5 days a week for 6 months. Each lighted cigarette (3R4F research cigarettes containing 10.9 mg of total particulate matter (TPM), 9.4 mg of tar, and 0.726 mg of nicotine, and 11.9 mg carbon monoxide per cigarette [University of Kentucky, Lexington, KY]) was puffed for 2 seconds and once every minute for a total of 8 puffs, with the flow rate of 1.05 L/min, to provide a standard puff of 35 cm^3. The smoke machine was adjusted to produce a mixture of side stream smoke (89%) and mainstream smoke (11%) by smoldering 2 cigarettes at one time. The smoke chamber atmosphere was monitored for total suspended particulates (80-120 mg/m^3) and carbon monoxide (350 ppm). Beginning at day 7, (10) INK-ATTAC and (10) 3MR mice were treated with AP20187 (3× per week) or gancyclovir (5 consecutive days of treatment followed by 16 days off drug, repeated until the end of the experiment), respectively. An equal number of mice received the corresponding vehicle. The remaining […] (15 INK-ATTAC and 15 3MR) were evenly split with 5 of each genetically modified strain placed into three different treatment groups. One group (n=10) received Nutlin-3A (25 mg/kg dissolved in 10% DMSO/3% Tween-20 in PBS, treated 14 days consecutively followed by 14 days off drug, repeated until the end of the experiment). […]
After two months of cigarette smoke exposure, lung function was assessed by monitoring oxygen saturation using the MouseSTAT PhysioSuite pulse oximeter (Kent Scientific). […] Mice were monitored for 30 seconds and the average peripheral capillary oxygen saturation (SpO2) measurement over this duration was calculated.

Take `COc1ccc(C2=N[C@@H](c3ccc(Cl)cc3)[C@@H](c3ccc(Cl)cc3)N2C(=O)N2CCNC(=O)C2)c(OC(C)C)c1` [Nutlin-3a]: the “Type 2 collagen expression in operated joints” value in test [1] (5.8 μg per knee intra-articular, vs untreated mice) was “drives collagen production”. Besides, in test [1] (4 weeks post-surgery), the “Weight bearing test (weight on operated vs unoperated limb)” value was “abrogates this effect”. In test [1] (55° C., 4 weeks post-surgery), the “Hotplate paw-lick response time” value is “decreases the response time in a significant manner”. Moreover, the “Histopathology: destruction of the proteoglycan layer” value in test [1] (C57BL/6J, 5.8 μg per knee intra-articular) is given as “completely abrogated this effect”. Moreover, the “Senescent cells in the joint (p16 and SASP factor mRNA, qRT-PCR)” value in test [1] (C57BL/6J, 5.8 μg per knee intra-articular qod 2 weeks, 4 weeks post-surgery) was “clears senescent cells from the joint”. Besides, the SpO2 levels result in test [2] is given as “statistically significant increases”.

On to `Nc1nc(O)c2ncn(COC(CO)CO)c2n1` [ganciclovir], for which the “Histopathology: impact on pathophysiology of osteoarthritis” value in test [1] (3MR mice, 2.5 μg intra-articular qd 5 days, weeks 2 and 4) was “same impact”. In test [2], the SpO2 levels result is listed as “statistically significant increases”.

The values are drawn from US11980616B2, “Treating liver disease by selectively eliminating senescent cells” (Buck Institute for Research on Aging, priority 2014, dated 2024).
